Consider 72 compounds from US9314468B2, “Chemokine receptor modulators” (Altiris Therapeutics, Inc., priority 2008, dated 2016).

This assay addresses CXCR4 (Homo sapiens (Human), UniProt P61073). The assay can be described thus: Functional calcium mobilization assay (SDF-1α induced). Type of assay: cell-based. The note with it: for IC50: CEM cells, SDF-1α challenge at EC80-EC90, read-out: Ca Flux IC50; for inhibition at 1 µM: CCRF-CEM, read-out: % inhibition at 1 μM. The method, then: Functional modulation of CXCR4 was determined by calcium mobilization assay using leukemic lymphoid CEM cells, which naturally express high levels of CXCR4. Generally, the assay is carried out as follows: Cells are grown in vitro to confluency. On the day of the assay, cells are removed from the incubator, culture medium removed and replaced with a calcium sensitive dye (Calcium3 assay kit; Molecular Devices, Sunnyvale, Calif.). The cells are allowed to dye load for 45-60 min at 37° C. in the cell culture incubator and then allowed to equilibrate to room temperature for no more than 15 min before assay.
Compound plates were generated containing up to 3% dimethyl sulfoxide in media kept at room temperature. Test compounds were added to the cells at a 1:3 dilution, and calcium mobilization was measured using a Flex Station fluorescence imager (Molecular Devices). This first read was used to determine direct agonist activation of the CXCR4 receptor by the test compounds. […] Full dose response curves were generated daily for SDF-1a to calculate IC50 concentrations. The IC50 values are reported. In cases, where one was not determined, a percent inhibition at the 1 μM concentration was extrapolated.
Functional calcium mobilization assay was conducted as described in Example 27.

Sequence of CXCR4 (P61073 whole entry): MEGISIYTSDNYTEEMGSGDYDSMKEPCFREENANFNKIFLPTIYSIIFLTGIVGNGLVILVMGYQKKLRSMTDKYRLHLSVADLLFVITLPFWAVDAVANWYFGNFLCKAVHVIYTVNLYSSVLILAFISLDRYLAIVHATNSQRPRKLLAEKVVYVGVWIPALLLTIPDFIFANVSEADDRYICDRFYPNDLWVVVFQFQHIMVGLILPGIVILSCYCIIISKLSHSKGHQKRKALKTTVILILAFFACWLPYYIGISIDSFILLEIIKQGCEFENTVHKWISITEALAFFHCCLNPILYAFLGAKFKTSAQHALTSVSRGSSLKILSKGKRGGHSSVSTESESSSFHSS

A word on the IC50: it is the concentration that inhibits the measured activity by half. Take `NCCCCN(Cc1nccc2c3ccccc3n(CC(=O)N3CC[S+]([O-])CC3)c12)[C@H]1CCCc2cccnc21`: the IC50 stood at 61 nM.
The same measure, in the same setting: next, `CN(Cc1nccc2c3ccccc3n(CCN3C(=O)c4ccccc4C3=O)c12)[C@H]1CCCc2cccnc21`: 329 nM; `c1cnc2c(c1)CCCC2N(CCCCNCC1CC1)Cc1nccc2c1[nH]c1ccccc12` (stereo not drawn): 729 nM.
As a reminder, the inhibition is the drop in the measured response relative to a control, in per cent. As for `CC(C)(C)OC(=O)CN(CCCCN(Cc1nccc2c1[nH]c1ccccc12)[C@H]1CCCc2cccnc21)CC(=O)OC(C)(C)C`, the inhibition at 1 µM was 18%.
`c1cnc2c(c1)CCC[C@@H]2N(Cc1ccc(N2CCNCC2)cc1)Cc1nccc2c1[nH]c1ccccc12`: the inhibition at 1 µM came out at 0%.
Regarding `CC(C)(C)C(=O)N1CCN(CCCN(Cc2nccc3c2[nH]c2ccccc23)C2CCCc3cccnc32)CC1` (stereo not drawn), the half-inhibitory concentration (IC50) worked out at 1930 nM.
Same read-out and setting: next, `NC/C=C\CN(Cc1nccc2c1[nH]c1ccccc12)[C@H]1CCCc2cccnc21`: 949 nM; `c1cnc2c(c1)CCC[C@@H]2N(CCCCNCC1CC1)Cc1nccc2c1[nH]c1ccccc12`: 451 nM.
On to `NCCCCN(Cc1nccc2c3ccccc3n(CC(=O)N3CCOCC3)c12)[C@H]1CCCc2cccnc21` [drawing 701], for which the IC50 turned out to be 79 nM.
Consider `c1cnc2c(c1)CCC[C@@H]2NCc1nccc2c1[nH]c1ccccc12`, for which the inhibition at 1 µM turned out to be 0%.
On to `O=C(Cn1c2ccccc2c2ccnc(CN(CCCN3CCNCC3)[C@H]3CCCc4cccnc43)c21)N1CCCCC1`, for which the half-maximal inhibitory concentration (IC50) is 405 nM.
Regarding `O=C1CN(CCCN(Cc2nccc3c4ccccc4n(CC(=O)N4CCOCC4)c23)[C@H]2CCCc3cccnc32)CCN1`, the IC50 is 8720 nM.
Same read-out and setting: next, `CN(Cc1nccc2c3ccccc3n(CCCCN)c12)[C@H]1CCCc2cccnc21`: 3370 nM.
Take `Cc1cccnc1CN(CCCCN)Cc1nccc2c3ccccc3n(CC(=O)N3CCOCC3)c12`: the half-maximal inhibitory concentration (IC50) was found to be 583 nM.
With `c1ccc(CNCCCCN(Cc2nccc3c2[nH]c2ccccc23)C2CCCc3cccnc32)nc1` (stereo not drawn), the IC50 is 5100 nM.
As to `c1cnc2c(c1)CCCC2N(CCNC1=NCCN1)Cc1nccc2c1[nH]c1ccccc12` (stereo not drawn), the inhibition at 1 µM is 0%.
For `NCCCCN(Cc1nccc2c1[nH]c1ccccc12)[C@@H]1CCCc2cccnc21`, the IC50 amounted to 1340 nM.
Regarding `c1cnc2c(c1)CCCC2N(CCCCN1CCOCC1)Cc1nccc2c1[nH]c1ccccc12` (stereo not drawn), the inhibition at 1 µM came out at 49%.
Regarding `CS(=O)(=O)N1CCN(CCCN(Cc2nccc3c2[nH]c2ccccc23)C2CCCc3cccnc32)CC1` (stereo not drawn), the inhibition at 1 µM turned out to be 27%.
Still for that read-out and setting: next, `NCCCCN(Cc1cn(Cc2ccccc2)nn1)C1CCCc2cccnc21` (stereo not drawn): 45%.
With `O=C(O)Cn1c2ccccc2c2ccnc(CN(CCCN3CCNCC3)[C@H]3CCCc4cccnc43)c21` [drawing 753], the IC50 is 135 nM.
With `CCNC(=O)NCCCCN(Cc1nccc2c1[nH]c1ccccc12)[C@H]1CCCc2cccnc21`, the inhibition at 1 µM came to 0%.
Regarding `NCCCCN(Cc1nccc2c3ccccc3n(Cc3ccncc3)c12)[C@H]1CCCc2cccnc21`, the IC50 amounted to 120 nM.
On the same count and under the same terms, next, `NCCCCN(Cc1nccc2c3ccccc3n(CCCN3CCNC(=O)C3)c12)[C@H]1CCCc2cccnc21`: 4 nM.
Consider `c1cnc2c(c1)CCC[C@@H]2NCc1cc2c(cn1)[nH]c1ccccc12`, for which the inhibition at 1 µM turned out to be 39%.
In the case of `Cn1c2ccccc2c2ccnc(CN(CCCCN)[C@H]3CCCc4cccnc43)c21`, the concentration for half-maximal inhibition (IC50) stood at 22 nM.
Regarding `C[C@@H]1CN(C(=O)Cn2c3ccccc3c3ccnc(CN(CCCCN)[C@H]4CCCc5cccnc54)c32)C[C@H](C)O1` [drawing 744], the IC50 was 123 nM.
On the same count and under the same terms, next, `NCCCCN(Cc1nccc2c3ccccc3n(CC(=O)N3CCSCC3)c12)[C@H]1CCCc2cccnc21`: 78 nM.
Consider `CN(Cc1nccc2c1[nH]c1ccccc12)[C@H]1CCCc2cccnc21`, for which the inhibition at 1 µM came to 0%.
Same read-out and setting: next, `c1cnc2c(c1)CCCC2N(CCCN1CCOCC1)Cc1nccc2c1[nH]c1ccccc12` (stereo not drawn): 20%.
Take `NCCCCN(Cc1nccc2c3ccccc3n(CC(=O)N3CCNCC3)c12)[C@H]1CCCc2cccnc21`: the half-inhibitory concentration (IC50) was found to be 663 nM.
On the same count and under the same terms, next, `CN1CCN(CCCN(Cc2nccc3c2[nH]c2ccccc23)[C@H]2CCCc3cccnc32)CC1`: 206 nM.
For `NC(=O)Cn1c2ccccc2c2ccnc(CN(CCCN3CCNCC3)[C@H]3CCCc4cccnc43)c21`, the IC50 is 9 nM.
Take `CC(C)CN(Cc1nccc2c3ccccc3n(CCCN3C(=O)c4ccccc4C3=O)c12)[C@H]1CCCc2cccnc21`: the IC50 was determined as 6650 nM.
In the case of `NCCCCN(Cc1nccc2c3ccccc3n(CCN3CCOCC3)c12)[C@H]1CCCc2cccnc21`, the concentration for half-maximal inhibition (IC50) was found to be 4 nM.
Turning to `CCN(Cc1nccc2c3ccccc3n(CCCN3C(=O)c4ccccc4C3=O)c12)[C@H]1CCCc2cccnc21`, the 50% inhibitory concentration (IC50) was 1640 nM.
On the same count and under the same terms, next, `NCCCCN(Cc1nccc2c1[nH]c1cc(F)ccc12)C1CCCc2cccnc21` (stereo not drawn): 565 nM; `NCCCCN(Cc1cc2c(cn1)[nH]c1ccccc12)[C@H]1CCCc2cccnc21`: 100 nM.
On to `O=C(CN(Cc1nccc2c1[nH]c1ccccc12)[C@H]1CCCc2cccnc21)NC1CCNCC1`, for which the inhibition at 1 µM worked out at 0%.
The same measure, in the same setting: next, `O=C(Cn1c2ccccc2c2ccnc(CN(Cc3ccc(CNCc4ccccn4)cc3)[C@H]3CCCc4cccnc43)c21)N1CCOCC1`: 0%; `c1ccc(CN(CCCCN(Cc2nccc3c2[nH]c2ccccc23)C2CCCc3cccnc32)Cc2ccccn2)nc1` (stereo not drawn): 27%; `CN(Cc1nccc2c3ccccc3n(CCCCN3C(=O)c4ccccc4C3=O)c12)[C@H]1CCCc2cccnc21`: 32%.
On to `CN(Cc1nccc2c3ccccc3n(Cc3cnn[nH]3)c12)[C@H]1CCCc2cccnc21`, for which the inhibition at 1 µM was 0%.
The same measure, in the same setting: next, `c1cnc2c(c1)CCCC2N(CCCNC1=NCCN1)Cc1nccc2c1[nH]c1ccccc12` (stereo not drawn): 6%.
`Cn1c2ccccc2c2cc(CN(CCCCN)[C@H]3CCCc4cccnc43)ncc21`: the concentration for half-maximal inhibition (IC50) was found to be 57 nM.
Still for that read-out and setting: next, `O=C(Cn1c2ccccc2c2ccnc(CN(CCCCNCc3cccnc3)[C@H]3CCCc4cccnc43)c21)N1CCOCC1`: 1400 nM.
On to `NCCCCN(Cc1nccc2c3ccccc3n(CCC3CCOCC3)c12)[C@H]1CCCc2cccnc21`, for which the IC50 is 13 nM.
As for `CN(C)C(=O)NCCCCN(Cc1nccc2c1[nH]c1ccccc12)C1CCCc2cccnc21` (stereo not drawn), the half-maximal inhibitory concentration (IC50) is 38 nM.
Turning to `c1cnc2c(c1)CCCC2N(CCN1CCNCC1)Cc1nccc2c1[nH]c1ccccc12` (stereo not drawn), the inhibition at 1 µM worked out at 0%.
As to `NC(=O)CCCN(Cc1nccc2c1[nH]c1ccccc12)[C@H]1CCCc2cccnc21`, the half-inhibitory concentration (IC50) was 1440 nM.
As to `CC(C)(C)OC(=O)N(CCCCN(Cc1nccc2c1[nH]c1ccccc12)[C@H]1CCCc2cccnc21)C(=O)OC(C)(C)C`, the inhibition at 1 µM worked out at 19%.
With `NCCCn1c2ccccc2c2ccnc(CN(CCCN3CCNCC3)[C@H]3CCCc4cccnc43)c21`, the IC50 amounted to 5 nM.
On the same count and under the same terms, next, `NCCCCN(Cc1nccc2c1[nH]c1ccccc12)[C@H]1CCCc2cccnc21`: 30 nM; `O=C(Cn1c2ccccc2c2ccnc(CN(CCCCNCc3ccccn3)[C@H]3CCCc4cccnc43)c21)N1CCOCC1`: 8650 nM.
With `O=C1c2ccccc2C(=O)N1CCCn1c2ccccc2c2ccnc(CN(CCCN3CCNCC3)[C@H]3CCCc4cccnc43)c21`, the IC50 was 44 nM.
Take `N[C@H]1CC[C@H](CN(Cc2nccc3c4ccccc4n(CC(=O)N4CCOCC4)c23)[C@H]2CCCc3cccnc32)CC1`: the IC50 came to 2150 nM.
In the case of `NC/C=C/CN(Cc1nccc2c1[nH]c1ccccc12)[C@H]1CCCc2cccnc21`, the inhibition at 1 µM turned out to be 20%.
Consider `c1cnc2c(c1)CCCC2N(CCCCN(CC1CC1)CC1CC1)Cc1nccc2c1[nH]c1ccccc12` (stereo not drawn), for which the inhibition at 1 µM amounted to 0%.
As for `NCCCCN(Cc1nccc2c3ccccc3n(CCCN3CCNCC3=O)c12)[C@H]1CCCc2cccnc21`, the concentration for half-maximal inhibition (IC50) stood at 20 nM.
Still for that read-out and setting: next, `c1cnc2c(c1)CCCC2N(CCCCNC1=NCCN1)Cc1nccc2c1[nH]c1ccccc12` (stereo not drawn): 1670 nM.
Consider `NCc1ccc(CN(Cc2nccc3c2[nH]c2ccccc23)[C@H]2CCCc3cccnc32)cc1`, for which the inhibition at 1 µM was determined as 0%.
For `NCCCCN(Cc1nccc2c3ccccc3n(CCCN)c12)[C@H]1CCCc2cccnc21` [drawing 748], the half-inhibitory concentration (IC50) was found to be 21 nM.
Still for that read-out and setting: next, `CN1CCN(CCCN(Cc2nccc3c4ccccc4n(CC(=O)N4CCOCC4)c23)[C@H]2CCCc3cccnc32)CC1`: 628 nM; `NCCCCN(Cc1nccc2c3ccccc3n(Cc3cccnc3)c12)[C@H]1CCCc2cccnc21`: 481 nM.
As for `COCCn1c2ccccc2c2ccnc(CN(CCCCN)[C@H]3CCCc4cccnc43)c21`, the half-inhibitory concentration (IC50) was found to be 20 nM.
In the case of `O=C(Cn1c2ccccc2c2ccnc(CN(CCCCNCc3ccncc3)[C@H]3CCCc4cccnc43)c21)N1CCOCC1`, the IC50 was 2830 nM.
Same read-out and setting: next, `O=C(Cn1c2ccccc2c2ccnc(CN(CCCC3CCNCC3)[C@H]3CCCc4cccnc43)c21)N1CCOCC1`: 124 nM; `CCOC(=O)Cn1c2ccccc2c2ccnc(CN(CCCCN)[C@H]3CCCc4cccnc43)c21`: 15 nM.
Regarding `CC(C)CN(CCCCN(Cc1nccc2c1[nH]c1ccccc12)[C@H]1CCCc2cccnc21)CC(C)C`, the inhibition at 1 µM was 23%.
Turning to `c1cnc2c(c1)CCC[C@@H]2N(CCCN1CCNCC1)Cc1cc2c(cn1)[nH]c1ccccc12`, the 50% inhibitory concentration (IC50) was determined as 331 nM.
`c1ccc(Cn2c3ccccc3c3ccnc(CN[C@H]4CCCc5cccnc54)c32)nc1`: the IC50 is 8390 nM.
On the same count and under the same terms, next, `O=C(CN(Cc1nccc2c1[nH]c1ccccc12)[C@H]1CCCc2cccnc21)N1CCNCC1`: 1810 nM.
